Holding throughout (assay): NCI anticancer screen, dose series, 48 h
In assay [1] the test system is 786-0 renal.
Assay [2] deals with A498 renal.
Assay [3] concerns HCC-2998 colon.
Assay [4] has as its system KM12 colon.
The test system of assay [5] is MALME-3M melanoma.
The test system of assay [6] is MCF7 breast.
The test system of assay [7] is RXF 393 renal.
Assay [8] relates to SK-MEL-28 melanoma.
In assay [9] the test system is SNB-75 CNS.
For assay [10], the system named is UACC-62 melanoma.

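The compound was tested at five concentrations on cells cultured in 96-well plates, with a 48-hour exposure period. GI50 is the concentration that inhibits growth by half. The concentration for full growth arrest is given as TGI.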 Some results are limits rather than exact numbers.

With `CCC(c1ccccc1)c1noc(CCN(CC)CC)n1` (stereo not given), the GI50 in [1] is 34.4 µM; in assay [2] it was greater than 81.9 µM; in [3], 50.1 µM; in assay [4], 22.8 µM; in assay [5] it was 30.2 µM; in assay [6], 8.98 µM. Further, the GI50 in assay [7] was 14.8 µM; in assay [8], 26.7 µM; in assay [9], 21.7 µM; in assay [10] it was 43.2 µM. Also, the TGI is greater than 100 µM in assay [1]; greater than 100 µM in assay [2]; greater than 100 µM in assay [3]; greater than 56.1 µM in assay [4]; greater than 100 µM in assay [5]; 76.2 µM in [6]. Moreover, the TGI in assay [7] is 29 µM; in assay [8], greater than 73.2 µM; in assay [9], greater than 100 µM; in assay [10] it was greater than 100 µM.
On to `COc1ccccc1CNCCN1C(=O)c2ccc3c4c(ccc(c24)C1=O)C(=O)N(CCNCc1ccccc1OC)C3=O`, for which the GI50 in [1] is 0.187 µM; in [2], 1.49 µM; in assay [3] it was 0.182 µM; in [4] it was 0.165 µM; in assay [5], 0.386 µM; in assay [6], 0.198 µM. Besides, the GI50 was 0.18 µM in [7], 1.46 µM in assay [8], 1.4 µM in [9] and 1.77 µM in assay [10]. Further, the TGI in assay [1] worked out at 0.37 µM; in assay [2], 2.92 µM; in assay [3], 0.354 µM; in [4], 0.35 µM; in assay [5] it was 1.55 µM; in assay [6] it was 0.492 µM. Also, the TGI in [7] worked out at 0.397 µM; in [8], 2.87 µM; in [9], 2.83 µM; in [10] it was 3.39 µM.
Consider `C=CCN(CC=C)C(=O)c1cc(C)nc2c1c(=O)n(-c1ccccc1)c(=O)n2CCCN1CCN(c2ccccc2OC)CC1`, for which the GI50 in [1], in assay [2], in assay [3], in assay [4], in assay [5] and in assay [6] was greater than 50 µM throughout. The GI50 in [7] is greater than 50 µM; in assay [8], greater than 50 µM; in assay [9] it was 31.4 µM; in assay [10] it was greater than 50 µM. Besides, the TGI in assay [1], in [2], in assay [3], in [4], in assay [5] and in assay [6] was greater than 50 µM in each case. The TGI in [7], in assay [8], in assay [9] and in assay [10] was greater than 50 µM in each case.
Regarding `C=C(CN1CCc2[nH]c3ccc(F)cc3c2C1)c1ccc(C(=O)Nc2ccccc2N)cc1`, the GI50 in [1] is 0.56 µM; in [2] it was 1.5 µM; in [3], 1.38 µM; in [4], 0.524 µM; in assay [5], 0.389 µM; in assay [6], 2.45 µM. The GI50 in assay [7] was 0.269 µM; in assay [8], 3.54 µM; in assay [9], 2.14 µM; in assay [10], 2.26 µM. Further, the TGI was 3.59 µM in assay [1]; 4.62 µM in [2]; 3.82 µM in assay [3]; 2.94 µM in assay [4]; 3.1 µM in assay [5]; 69.2 µM in assay [6]. Also, the TGI was 0.949 µM in assay [7], 26.2 µM in assay [8], 7.4 µM in assay [9] and 5.9 µM in assay [10].
Turning to `CCCCCCCCCCCCCCNC(=O)Nc1ccc(Cl)c(Cl)c1`, the GI50 in [1] is 2.79 µM; in assay [2], 2.13 µM; in assay [3], 2.85 µM; in [4], 3 µM; in assay [5], 1.39 µM; in [6], 2.86 µM. For the same molecule, the GI50 was 4.01 µM in assay [7], 3.7 µM in assay [8], 1.98 µM in assay [9] and 3.69 µM in [10]. Besides, the TGI in assay [1] is greater than 23.4 µM; in [2], greater than 26.4 µM; in assay [3], greater than 100 µM; in assay [4], 8.44 µM; in assay [5], 4.59 µM; in [6], greater than 36.1 µM. Also, the TGI in [7] was greater than 26.3 µM; in [8], greater than 100 µM; in assay [9], 9.57 µM; in assay [10], greater than 100 µM.
On to `Cc1noc(NC(=O)Nc2ccccc2F)c1C#N`, for which the TGI in assay [1] is greater than 47.1 µM; in assay [2] it was greater than 50.9 µM; in assay [3], 3.8 µM; in assay [4], greater than 100 µM; in [5], greater than 51.9 µM; in [6] it was greater than 35.6 µM. For the same molecule, the TGI in assay [7] is greater than 100 µM; in assay [8], greater than 100 µM; in assay [9], greater than 100 µM; in assay [10], greater than 45.4 µM.
With `COc1ccccc1Oc1nccc(-c2c(-c3ccc(F)cc3)ncn2C2CCNCC2)n1`, the GI50 is greater than 25 µM in assay [1]; greater than 25 µM in [2]; 11.8 µM in assay [3]; greater than 25 µM in assay [4]; greater than 25 µM in assay [5]; 16 µM in [6]. For the same molecule, the GI50 was 8.67 µM in assay [7], greater than 24.1 µM in assay [8], greater than 16.6 µM in [9] and greater than 25 µM in [10]. In addition, the TGI in assay [1], in assay [2], in assay [3], in assay [4], in assay [5] and in assay [6] was greater than 25 µM throughout. The TGI in assay [7], in assay [8], in assay [9] and in assay [10] was greater than 25 µM in each case.
On to `COCCOC1=C(Cl)C(=O)c2ccccc2C1=O`, for which the GI50 in assay [1] was 6.26 µM; in assay [2] it was 4.35 µM; in assay [3], 4.23 µM; in assay [4], 2.11 µM; in assay [5], 3.08 µM; in assay [6], 3.06 µM. In addition, the GI50 in assay [7] is 3.31 µM; in assay [8], 3.22 µM; in [9], 2.75 µM; in assay [10], 1.89 µM. Besides, the TGI worked out at 18.8 µM in assay [1]; 18.2 µM in [2]; 15 µM in assay [3]; 4.23 µM in [4]; 13.4 µM in [5]; 14.7 µM in [6]. The TGI in assay [7] is 10.2 µM; in [8] it was 10.9 µM; in [9], 10.1 µM; in assay [10], 5.1 µM.
For the molecule `O=NN(CCCl)C(=O)NC1CCC(CC(=O)O)CC1` (stereo not given), the TGI in assay [1], in assay [2], in assay [3], in assay [4], in assay [5] and in [6] was greater than 100 µM each time. The TGI in assay [7], in assay [8], in [9] and in assay [10] was greater than 100 µM each time.
Consider `Fc1ccc(NC(c2ccc(F)cc2)C2CCN(CCCCc3ccccc3)CC2)cc1` (stereo not given), for which the GI50 in [1] is 1.47 µM; in [2], 0.671 µM; in assay [3], 1.76 µM; in assay [4] it was 1.85 µM; in [5], 1.4 µM; in [6] it was 1.64 µM. The GI50 in [7] was 1.72 µM; in [8], 1.76 µM; in [9], 1.11 µM; in [10], 1.83 µM. For the same molecule, the TGI in assay [1] stood at 2.84 µM; in assay [2], 2.21 µM; in [3], 3.31 µM; in [4] it was 3.67 µM; in assay [5] it was 2.88 µM; in [6] it was 3.24 µM. In addition, the TGI in assay [7] is 3.17 µM; in assay [8] it was 3.28 µM; in assay [9] it was 2.43 µM; in [10], 3.46 µM.
For the molecule `NC(N)=NCCCC(NCc1c2ccccc2nc2ccccc12)C(=O)O` (stereo not given), the TGI in assay [1], in assay [2], in assay [3], in assay [4], in [5] and in assay [6] was greater than 100 µM each time. For the same molecule, the TGI in [7], in assay [8], in [9] and in [10] was greater than 100 µM each time.
As for `CCCCCCCCCCCC[C@@H](O)[C@H]1CC[C@H]([C@H](O)CC[C@H](O)[C@@H]2CC[C@@H](CCCCCCCC3=C[C@H](C)OC3=O)O2)O1`, the GI50 in assay [1] is 6.4 µM; in assay [4], 4.26 µM; in assay [6] it was 1.85 µM; in assay [8] it was 3.37 µM; in [10], greater than 50 µM. Moreover, the TGI in assay [1], in assay [2], in assay [3], in assay [4], in [5] and in assay [6] was greater than 50 µM throughout. The TGI in assay [7], in [8], in assay [9] and in assay [10] was greater than 50 µM throughout.
With `CCOC(=O)/C(=C\c1cccc(C)c1)C(C)=O`, the TGI in assay [1] amounted to 26.4 µM; in assay [2], 52 µM; in [3] it was 28.4 µM; in assay [4], 32.9 µM; in assay [5], 31.4 µM; in assay [6] it was 35.4 µM. Also, the TGI in assay [7] was determined as 24.9 µM; in assay [8], 30.5 µM; in [9], 25.2 µM; in assay [10] it was 31.7 µM.
For `N#CC(C#N)=C/C=C(\Sc1ccc(Cl)cc1)c1ccc(F)cc1`, the GI50 is 0.42 µM in assay [1]; 3.42 µM in assay [2]; 2.87 µM in assay [3]; 0.87 µM in assay [4]; 1.6 µM in [5]; 0.982 µM in [6]. For the same molecule, the GI50 was 5.36 µM in assay [7], 6.61 µM in assay [8], 16.6 µM in [9] and 2.03 µM in [10]. Moreover, the TGI in [1] is 3.07 µM; in [2], 8.67 µM; in [3], 6.17 µM; in [4] it was 3.73 µM; in [5], 6.28 µM; in assay [6], greater than 100 µM. For the same molecule, the TGI in assay [7] was greater than 100 µM; in assay [8] it was 19.3 µM; in assay [9] it was 31.7 µM; in assay [10] it was 10.3 µM.
For the molecule `CSc1nc2nc(-c3ccccc3)c(C)c-2c2n1C(C)C(=O)N2` (stereo not given), the GI50 in [1] is 29.2 µM; in assay [2], 32.2 µM; in assay [3], 88.6 µM; in assay [4], 47.7 µM; in assay [5], 43.1 µM; in [6] it was 25.8 µM. The GI50 in [7] was 30.6 µM; in [8], 43.4 µM; in [9], 43.2 µM; in assay [10], 18.6 µM. Further, the TGI in assay [1], in [2], in assay [3], in [4], in assay [5] and in assay [6] was greater than 100 µM each time. The TGI is greater than 100 µM in [7], greater than 100 µM in assay [8], greater than 100 µM in [9] and 45.2 µM in assay [10].
With `Cc1cc(Br)c(NC(=O)c2c(-c3c(Cl)cccc3Cl)noc2C)c(Br)c1`, the GI50 in [1], in assay [2], in [3], in [4], in [5] and in [6] was greater than 100 µM throughout. Besides, the GI50 in assay [7] is 71.9 µM; in [8], greater than 100 µM; in assay [9] it was 47.2 µM; in assay [10], 14.3 µM. Besides, the TGI in assay [1], in assay [2], in assay [3], in assay [4], in assay [5] and in [6] was greater than 100 µM throughout. The TGI in assay [7], in [8], in [9] and in [10] was greater than 100 µM in each case.

Source of the values: PubChem BioAssay (NCI).
